Calls of active or inactive are those of the source.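 How the source made its calls: active means Fitted curve of melting temperature shift crosses the 1.0 threshold at or below the sample's highest valid tested concentration; inconclusive means Flat fit with activity 30 to 70, or invalid fit; inactive means Opposite direction, flat within 30, or no crossing.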
Molecular target: Fibroblast growth factor 22 (Homo sapiens) (UniProt Q9HCT0)
Assay: binders of human FGF22 protein, dose response, FGF22 synaptogenesis inhibitor project, biophysical, thermal shift, cherry-pick (AID 687022)
Conditions: recombinant FGF22 thermal shift, SYPRO orange melting

Chain of Fibroblast growth factor 22 (Homo sapiens) (Q9HCT0 whole entry, looked up): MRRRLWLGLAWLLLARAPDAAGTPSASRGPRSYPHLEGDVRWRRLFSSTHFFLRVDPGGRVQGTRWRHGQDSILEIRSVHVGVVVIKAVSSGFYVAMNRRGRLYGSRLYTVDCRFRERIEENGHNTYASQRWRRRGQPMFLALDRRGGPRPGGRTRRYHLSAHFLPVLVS

Oc1cc(O)cc(-c2cc3ccc(O)cc3o2)c1
AbsAC1 (concentration giving Tm-shift threshold 1.0): 14.9 µM

CN1C(=O)c2cc(NC(=O)c3cccc(F)c3)ccc2OC[C@@H]2O[C@H](CC(=O)NCc3ccccc3)CC[C@@H]21
AbsAC1 (concentration giving Tm-shift threshold 1.0): 21 µM

CCN(CC)c1ccc(/C=N/NC(=O)c2c[nH]c3ccccc23)cc1
AbsAC1 (concentration giving Tm-shift threshold 1.0): 26.8 µM

O=C(C[C@@H]1CC[C@H]2[C@@H](COC[C@@H](O)CN2S(=O)(=O)c2cccc(F)c2)O1)Nc1ccccc1
AbsAC1 (concentration giving Tm-shift threshold 1.0): 3.53 µM

CSc1nc2nc(Cl)c(Cl)nc2[nH]1
AbsAC1 (concentration giving Tm-shift threshold 1.0): > 38 µM (inactive)

COc1ccc(N(C)S(=O)(=O)c2cccc(C(=O)Nc3ccc(N4CCOCC4)cc3)c2)cc1
AbsAC1 (concentration giving Tm-shift threshold 1.0): 9 µM

C[C@@H]1CN([C@H](C)CO)S(=O)(=O)c2ccc(C3=CCCC3)cc2O[C@@H]1CN(C)C(=O)Nc1ccc2c(c1)OCO2
AbsAC1 (concentration giving Tm-shift threshold 1.0): 20.2 µM

COc1ccc(-c2csc(NC(=O)CN3C(=O)C4CCCCC4C3=O)n2)c(OC)c1 (stereo unspecified)
AbsAC1 (concentration giving Tm-shift threshold 1.0): 14.7 µM

COc1cc(NC(=O)c2csc(N)n2)cc(C(=O)Nc2cccc(C(F)(F)F)c2)c1
AbsAC1 (concentration giving Tm-shift threshold 1.0): 10.3 µM

C[C@H](CO)N1C[C@H](C)[C@H](CN(C)C(=O)Nc2ccc3c(c2)OCO3)Oc2cc(C3=CCCC3)ccc2S1(=O)=O
AbsAC1 (concentration giving Tm-shift threshold 1.0): 36.2 µM

O=C(N/N=C\c1cccnc1)c1cc(-c2ccc(Cl)s2)[nH]n1
AbsAC1 (concentration giving Tm-shift threshold 1.0): > 38 µM (inactive)

CC(=O)Nc1cccc(NC(=O)c2ccc3[nH]c(C)c(C)c3c2)c1
AbsAC1 (concentration giving Tm-shift threshold 1.0): 5.11 µM

CC(C)c1ccc(-n2c(O)c(/C=N/NC(=O)c3ccccc3O)c(=O)[nH]c2=S)cc1
AbsAC1 (concentration giving Tm-shift threshold 1.0): 3.91 µM

O=c1c2ccccc2[nH]c2ccc(F)cc12
AbsAC1 (concentration giving Tm-shift threshold 1.0): > 38 µM (inactive)

Cc1ccc(NC(=O)Nc2cccnc2)cc1
AbsAC1 (concentration giving Tm-shift threshold 1.0): 27.1 µM

CCOC(=O)c1sc(N2C(=O)C(O)=C(C(=O)c3ccco3)C2c2ccc([N+](=O)[O-])cc2)nc1C (stereo unspecified)
AbsAC1 (concentration giving Tm-shift threshold 1.0): 5.28 µM

O=C(Nc1ccc(F)cc1)N[C@H]1CC[C@@H](CCn2cc(-c3ccccc3F)nn2)O[C@H]1CO
AbsAC1 (concentration giving Tm-shift threshold 1.0): 10.5 µM

CC1(C)CCC(=O)N2CC[C@H]3C[C@H](OC(=O)Nc4ccccc4)C[C@@H]1[C@H]32
AbsAC1 (concentration giving Tm-shift threshold 1.0): 12 µM

O=C(O)c1ccccc1NS(=O)(=O)c1ccc2ccccc2c1
AbsAC1 (concentration giving Tm-shift threshold 1.0): 4.33 µM

O=C(NN=Cc1ccc(O)cc1)c1ccccc1NS(=O)(=O)c1cccs1
AbsAC1 (concentration giving Tm-shift threshold 1.0): 5.76 µM

Cc1nn(-c2ccccc2)c(C)c1/C=N/NC(=O)c1cc(-c2cccs2)[nH]n1
AbsAC1 (concentration giving Tm-shift threshold 1.0): 8.19 µM

C/C=C/c1ccc2c(c1)O[C@@H](CN(C)C(=O)Nc1ccc(F)cc1)[C@@H](C)CN([C@H](C)CO)S2(=O)=O
AbsAC1 (concentration giving Tm-shift threshold 1.0): 14.8 µM

C[C@@H]1CN([C@@H](C)CO)C(=O)Cc2cc(NC(=O)C3CC3)ccc2O[C@H]1CN(C)Cc1ccc(Cl)c(Cl)c1
AbsAC1 (concentration giving Tm-shift threshold 1.0): 16.7 µM

COc1cccc(NC(=O)N(C)C[C@H]2Oc3cc(-c4ccccc4F)ccc3S(=O)(=O)N([C@H](C)CO)C[C@H]2C)c1
AbsAC1 (concentration giving Tm-shift threshold 1.0): 4.99 µM

O=C(CC(=O)c1ccccc1)Nc1cccc([N+](=O)[O-])c1
AbsAC1 (concentration giving Tm-shift threshold 1.0): 4.49 µM

COc1ccc2o/c(=N\O)c(C(=O)Nc3ccc(C)cc3)cc2c1
AbsAC1 (concentration giving Tm-shift threshold 1.0): 28 µM

Cc1[nH]c2ccccc2c1N=Nc1cc(C(=O)O)cc(C(=O)O)c1
AbsAC1 (concentration giving Tm-shift threshold 1.0): 19.9 µM

Cc1cc(NC(=O)Nc2ccc3c(ccn3C)c2)sn1
AbsAC1 (concentration giving Tm-shift threshold 1.0): 3.42 µM

COc1ccccc1NC(=O)N[C@@H]1CC[C@H](CCn2cc(-c3ccccc3OC)nn2)O[C@@H]1CO
AbsAC1 (concentration giving Tm-shift threshold 1.0): 32 µM

O=C(CN(Cc1ccccc1)S(=O)(=O)c1ccccc1)N/N=C/c1ccccc1C(=O)O
AbsAC1 (concentration giving Tm-shift threshold 1.0): 18.9 µM

N#Cc1ccc(NC(=O)Nc2cccc(C#N)c2)cc1
AbsAC1 (concentration giving Tm-shift threshold 1.0): 4.49 µM

O=C(Nc1cc(Cl)cc(Cl)c1)N[C@@H]1CC[C@@H](CCNS(=O)(=O)c2cccc(F)c2)O[C@H]1CO
AbsAC1 (concentration giving Tm-shift threshold 1.0): 5.67 µM

COc1ccc(-c2ccc([C@@H]3[C@@H](CO)N4CCCCN(C(=O)c5ccc(F)cc5)C[C@@H]34)cc2)cc1
AbsAC1 (concentration giving Tm-shift threshold 1.0): 3.54 µM

CC(C)(C)S(=O)(=O)/C(C#N)=N/Nc1ccc(Cl)cc1
AbsAC1 (concentration giving Tm-shift threshold 1.0): 25.7 µM

COc1ccc2c(/C=N/NS(=O)(=O)c3ccc(C)cc3)c[nH]c2c1
AbsAC1 (concentration giving Tm-shift threshold 1.0): 9.87 µM

CCOC(=O)c1c(N)sc(C(=O)Nc2ccccc2)c1C
AbsAC1 (concentration giving Tm-shift threshold 1.0): 3.02 µM

O=C(N/N=C/c1c[nH]c2ccccc12)c1ccc(O)c(O)c1
AbsAC1 (concentration giving Tm-shift threshold 1.0): 3.74 µM

O=[N+]([O-])c1cccc(S(=O)(=O)Nc2ccc(-c3ccc(N4CCOCC4)nn3)cc2)c1
AbsAC1 (concentration giving Tm-shift threshold 1.0): 7.01 µM

Cc1cc(C)cc(NS(=O)(=O)c2cc3[nH]c(=O)c(=O)[nH]c3cc2C)c1
AbsAC1 (concentration giving Tm-shift threshold 1.0): 10.2 µM

O=C(NCC1CCOCC1)c1ccc2nc(Cc3cccc(Cl)c3)oc2c1
AbsAC1 (concentration giving Tm-shift threshold 1.0): 6.43 µM

C/C=C/c1ccc2c(c1)O[C@@H](CN(C)C(=O)Nc1cccc(F)c1)[C@@H](C)CN([C@@H](C)CO)S2(=O)=O
AbsAC1 (concentration giving Tm-shift threshold 1.0): 7.47 µM

CCOc1ccc(N2C(=O)C(CC(=O)Nc3ccc(F)cc3)N(Cc3ccccn3)C2=S)cc1 (stereo unspecified)
AbsAC1 (concentration giving Tm-shift threshold 1.0): 9.4 µM

O=C(Nc1nccs1)c1ccc(S(=O)(=O)NCc2cccs2)cc1
AbsAC1 (concentration giving Tm-shift threshold 1.0): 11.1 µM

CC(C)CCNC(=O)c1onc(CSc2ccncc2)c1C(=O)NCCC(C)C
AbsAC1 (concentration giving Tm-shift threshold 1.0): 3.89 µM

COc1cccc(C#Cc2ccc([C@H]3[C@H]4CN(S(=O)(=O)c5ccccc5C)CC(=O)N4[C@H]3CO)cc2)c1
AbsAC1 (concentration giving Tm-shift threshold 1.0): 16.6 µM

Cc1[nH]c2ccccc2c1C(=O)NS(=O)(=O)Nc1ccc(Cl)cc1
AbsAC1 (concentration giving Tm-shift threshold 1.0): 3.06 µM

C[C@@H]1CN([C@@H](C)CO)S(=O)(=O)c2ccc(-c3ccncc3)cc2O[C@@H]1CN(C)C(=O)Nc1ccc(F)cc1
AbsAC1 (concentration giving Tm-shift threshold 1.0): 4.72 µM

O=S1(=O)N=C(N(Cc2cccs2)c2ccc(O)cc2)c2ccccc21
AbsAC1 (concentration giving Tm-shift threshold 1.0): 1.47 µM

O=[N+]([O-])c1ccc(Nc2ccccc2)nc1
AbsAC1 (concentration giving Tm-shift threshold 1.0): 5.31 µM

C[C@@H]1CN([C@@H](C)CO)S(=O)(=O)c2ccc(C3=CCCC3)cc2O[C@@H]1CN(C)C(=O)Nc1ccc2c(c1)OCO2
AbsAC1 (concentration giving Tm-shift threshold 1.0): 20.2 µM

COc1cccc(NC(=O)N(C)C[C@@H]2Oc3cc(-c4ccccc4F)ccc3S(=O)(=O)N([C@H](C)CO)C[C@@H]2C)c1
AbsAC1 (concentration giving Tm-shift threshold 1.0): 2.04 µM

NS(=O)(=O)c1cccc(NC(=O)COC(=O)c2cc([N+](=O)[O-])ccc2N2CCCC2)c1
AbsAC1 (concentration giving Tm-shift threshold 1.0): 5.86 µM

Nc1nonc1N/N=C\c1ccccc1
AbsAC1 (concentration giving Tm-shift threshold 1.0): 4.88 µM

COC(=O)C[C@H]1CC[C@@H]2[C@@H](COc3ccc(NC(=O)Nc4cccc(C#N)c4)cc3C(=O)N2C)O1
AbsAC1 (concentration giving Tm-shift threshold 1.0): 7.79 µM

Clc1ccc(Nc2ccc(NCc3ccccc3)nn2)cc1
AbsAC1 (concentration giving Tm-shift threshold 1.0): 2.73 µM

CS(=O)(=O)N1CC(=O)N2[C@H](CO)[C@@H](c3ccc(C#CCc4ccccc4)cc3)[C@H]2C1
AbsAC1 (concentration giving Tm-shift threshold 1.0): 37.5 µM

CC(C)C#Cc1cnc2c(c1)C(=O)N([C@@H](C)CO)C[C@@H](C)[C@H](CN(C)C(=O)c1cnccn1)O2
AbsAC1 (concentration giving Tm-shift threshold 1.0): > 38 µM (inactive)

CC(=O)Nc1ccc(S(=O)(=O)NCCc2c[nH]c3ccc(C)cc23)cc1
AbsAC1 (concentration giving Tm-shift threshold 1.0): 21.6 µM

COc1cc(NC(=O)c2ccc3c(c2)OCCO3)ccc1NC(=O)c1cccs1
AbsAC1 (concentration giving Tm-shift threshold 1.0): 3.85 µM

COc1ccc(N(CC(=O)N/N=C/c2ccc(OC)c(OC)c2)S(=O)(=O)c2ccccc2)cc1
AbsAC1 (concentration giving Tm-shift threshold 1.0): 18.5 µM

COc1ccc(NC(=O)N(C)C[C@@H]2Oc3ccc(NC(=O)Cc4ccccc4)cc3C(=O)N([C@H](C)CO)C[C@H]2C)cc1
AbsAC1 (concentration giving Tm-shift threshold 1.0): 39.8 µM

NC(=NCCc1c[nH]c2ccccc12)NS(=O)(=O)c1ccc(F)cc1
AbsAC1 (concentration giving Tm-shift threshold 1.0): 6.63 µM

O=C(C[C@H]1CC[C@H]2[C@@H](COC[C@@H](O)CN2S(=O)(=O)c2cccc(F)c2)O1)Nc1ccc(-c2ccccc2)cc1
AbsAC1 (concentration giving Tm-shift threshold 1.0): > 38 µM (inactive)

COc1cccc(C(=O)Nc2cccc(NC(=O)c3cccs3)c2)c1
AbsAC1 (concentration giving Tm-shift threshold 1.0): 1.72 µM

CC1([N+](=O)[O-])COP(=O)(NC2CC2)OC1 (stereo unspecified)
AbsAC1 (concentration giving Tm-shift threshold 1.0): 8.33 µM

COc1ccc(NC(=O)COC(=O)Cc2c[nH]c3ccccc23)cc1Cl
AbsAC1 (concentration giving Tm-shift threshold 1.0): 2.76 µM

C[C@H](CO)N1C[C@H](C)[C@@H](CN(C)Cc2ccc(C(=O)O)cc2)Oc2cc(/C=C/c3ccccc3)ccc2S1(=O)=O
AbsAC1 (concentration giving Tm-shift threshold 1.0): > 42 µM (inactive)

Oc1ccc(/C=N/N=C/c2ccc(O)c(O)c2)cc1O
AbsAC1 (concentration giving Tm-shift threshold 1.0): 2.05 µM

C[C@H]1CN([C@@H](C)CO)S(=O)(=O)c2ccc(-c3cccc(F)c3)cc2O[C@H]1CN(C)C(=O)Nc1cc(F)ccc1F
AbsAC1 (concentration giving Tm-shift threshold 1.0): 6.67 µM

Oc1ccc(-c2csc(Nc3ccccn3)n2)c(O)c1
AbsAC1 (concentration giving Tm-shift threshold 1.0): 5.13 µM

Brc1ccccc1/C=N/Nc1ccccn1
AbsAC1 (concentration giving Tm-shift threshold 1.0): 9.78 µM

COC(=O)c1cc(OC)c(OC)cc1NC(=O)c1ccccc1C
AbsAC1 (concentration giving Tm-shift threshold 1.0): 16.7 µM

O=C1C(=O)C(c2ccccc2)C(=O)C1c1ccccc1 (stereo unspecified)
AbsAC1 (concentration giving Tm-shift threshold 1.0): 10.7 µM

O=C(N/N=C/c1c[nH]c2ccccc12)c1cccs1
AbsAC1 (concentration giving Tm-shift threshold 1.0): 2.71 µM

COc1ccccc1CNC(=O)C[C@H]1CC[C@@H]2[C@H](COC[C@H](O)CN2C(=O)Nc2ccc(Cl)cc2)O1
AbsAC1 (concentration giving Tm-shift threshold 1.0): 30.5 µM

Nc1nonc1-n1nnc(C(=O)N/N=C/c2cccnc2)c1CSc1ccc(Cl)cc1
AbsAC1 (concentration giving Tm-shift threshold 1.0): 3.46 µM

COc1ccc(/C=N/Nc2ccc([N+](=O)[O-])cc2)cc1O
AbsAC1 (concentration giving Tm-shift threshold 1.0): 4.37 µM

CCOC(=O)c1sc(NC(=O)Nc2ccccc2)cc1C
AbsAC1 (concentration giving Tm-shift threshold 1.0): 10.2 µM

O=C(Nc1ccc(S(=O)(=O)N2CCCC2)cc1)c1ccccc1
AbsAC1 (concentration giving Tm-shift threshold 1.0): 8.57 µM

COc1ccc(C#Cc2ccc3c(c2)O[C@H](CN(C)S(=O)(=O)c2ccccc2F)[C@@H](C)CN([C@@H](C)CO)S3(=O)=O)cc1
AbsAC1 (concentration giving Tm-shift threshold 1.0): 14.7 µM

COc1cc(/C=C2/S/C(=N/S(=O)(=O)Cc3ccccc3)NC2=O)c([N+](=O)[O-])cc1OC
AbsAC1 (concentration giving Tm-shift threshold 1.0): 3.72 µM

— PubChem BioAssay AID687022 (Broad Institute, 2013)
